ChEMBL document CHEMBL3526058, “Investigating the enteroenteric recirculation of apixaban, a factor Xa inhibitor: administration of activated charcoal to bile duct-cannulated rats and dogs receiving an intravenous dose and use of drug transporter knockout rats” (Drug Metab Dispos, 2013)

What was measured:
[1] = Cmax in wild-type bile duct-cannulated Sprague-Dawley rat at 2 mg/kg, iv administered 0.125 hr post GF-120918 treatment; type: ADME, organism-based; set-up: dose 2 mg/kg, route intravenous; conditions: in vivo, with GF-120918
[2] = tested on: Rattus norvegicus; experiment: Intestinal clearance in wild-type bile duct-cannulated Sprague-Dawley rat at 2 mg/kg, iv relative to total clearance; type: ADME, organism-based; set-up: dose 2 mg/kg, route intravenous; conditions: in vivo
[3] = Renal clearance in wild-type bile duct-cannulated Sprague-Dawley rat at 2 mg/kg, iv; type: ADME, organism-based, Kidney; set-up: dose 2 mg/kg, route intravenous; conditions: in vivo
[4] = tested on: Rattus norvegicus; experiment: Renal clearance in wild-type 30 mins activated charcoal pre-treated bile duct-cannulated Sprague-Dawley rat at 2 mg/kg, iv followed by activated charcoal administration 5 to 180 mins post compound dosing relative to total clearance; type: ADME, organism-based, Kidney; set-up: dose 2 mg/kg, route intravenous; conditions: in vivo
[5] = tested on: Rattus norvegicus; experiment: Metabolism and biliary clearance in BCRP-knockout Sprague-Dawley rat at 2 mg/kg, iv; type: ADME, organism-based, Bile; set-up: dose 2 mg/kg, route intravenous; conditions: in vivo
[6] = Volume of distribution at steady state in wild-type 30 mins activated charcoal pre-treated bile duct-cannulated Sprague-Dawley rat at 2 mg/kg, iv followed by activated charcoal administration 5 to 180 mins post compound dosing; type: ADME, organism-based; set-up: dose 2 mg/kg, route intravenous; conditions: in vivo, read-out: Vdss
[7] = Half life in bile duct-cannulated beagle dog at 1 mg/kg, iv administered as 5 mins infusion followed by activated charcoal administration 10 to 420 mins post compound dosing; type: ADME, organism-based, Canis lupus familiaris; set-up: dose 1 mg/kg, route intravenous; conditions: in vivo
[8] = Renal clearance in wild-type 30 mins activated charcoal pre-treated bile duct-cannulated Sprague-Dawley rat at 2 mg/kg, iv followed by activated charcoal administration 5 to 180 mins post compound dosing; type: ADME, organism-based, Kidney; set-up: dose 2 mg/kg, route intravenous; conditions: in vivo
[9] = tested on: Rattus norvegicus; experiment: Metabolism and biliary clearance in BCRP-knockout Sprague-Dawley rat at 2 mg/kg, iv relative to total clearance; type: ADME, organism-based, Bile; set-up: dose 2 mg/kg, route intravenous; conditions: in vivo
[10] = Cmax in P-gp-knockout Sprague-Dawley rat at 2 mg/kg, iv; type: ADME, organism-based; set-up: dose 2 mg/kg, route intravenous; conditions: in vivo
[11] = tested on: Rattus norvegicus; experiment: Metabolism and biliary clearance in P-gp-knockout Sprague-Dawley rat at 2 mg/kg, iv; type: ADME, organism-based, Bile; set-up: dose 2 mg/kg, route intravenous; conditions: in vivo
[12] = Plasma protein binding in Sprague-Dawley rat; type: ADME, cell-free; conditions: read-out: PPB (converted)
[13] = Drug recovery in feces of beagle dog at 5 mg/kg, po measured up to 72 hrs; type: ADME, organism-based, Canis lupus familiaris; set-up: dose 5 mg/kg, route oral; conditions: read-out: Drug recovery
[14] = tested on: Canis familiaris; experiment: Intestinal clearance in bile duct-cannulated beagle dog at 1 mg/kg, iv administered as 5 mins infusion relative to total clearance; type: ADME, organism-based, Canis lupus familiaris; set-up: dose 1 mg/kg, route intravenous; conditions: in vivo
[15] = Drug recovery in bile of bile duct-cannulated Sprague-Dawley rat at 2 mg/kg, iv administered 1 hr post GF-120918 treatment measured up to 48 hrs; type: ADME, organism-based; set-up: dose 2 mg/kg, route intravenous; conditions: with GF-120918, given 1 hr before the compound, read-out: Drug recovery
[16] = Cmax in bile duct-cannulated beagle dog at 1 mg/kg, iv administered as 5 mins infusion; type: ADME, organism-based, Canis lupus familiaris; set-up: dose 1 mg/kg, route intravenous; conditions: in vivo
[17] = tested on: Rattus norvegicus; experiment: Intestinal clearance in P-gp-knockout Sprague-Dawley rat at 2 mg/kg, iv relative to total clearance; type: ADME, organism-based; set-up: dose 2 mg/kg, route intravenous; conditions: in vivo
[18] = tested on: Canis familiaris; experiment: Intestinal clearance in bile duct-cannulated beagle dog at 1 mg/kg, iv administered as 5 mins infusion; type: ADME, organism-based, Canis lupus familiaris; set-up: dose 1 mg/kg, route intravenous; conditions: in vivo
[19] = tested on: Canis familiaris; experiment: Metabolism and biliary clearance in bile duct-cannulated beagle dog at 1 mg/kg, iv administered as 5 mins infusion; type: ADME, organism-based, Canis lupus familiaris; set-up: dose 1 mg/kg, route intravenous; conditions: in vivo
[20] = Drug recovery in urine of 30 mins activated charcoal pre-treated bile duct-cannulated Sprague-Dawley rat at 2 mg/kg, iv followed by activated charcoal administration 5 to 180 mins post compound dosing measured up to 48 hrs; type: ADME, organism-based; set-up: dose 2 mg/kg, route intravenous; conditions: read-out: Drug recovery
[21] = tested on: Rattus norvegicus; experiment: Intestinal clearance in wild-type bile duct-cannulated Sprague-Dawley rat at 2 mg/kg, iv; type: ADME, organism-based; set-up: dose 2 mg/kg, route intravenous; conditions: in vivo
[22] = Drug recovery in urine of bile duct-cannulated Sprague-Dawley rat at 2 mg/kg, iv administered 1 hr post GF-120918 treatment measured up to 48 hrs; type: ADME, organism-based; set-up: dose 2 mg/kg, route intravenous; conditions: with GF-120918, given 1 hr before the compound, read-out: Drug recovery
[23] = tested on: Canis familiaris; experiment: Clearance in bile duct-cannulated beagle dog at 1 mg/kg, iv administered as 5 mins infusion followed by activated charcoal administration 10 to 420 mins post compound dosing; type: ADME, organism-based, Canis lupus familiaris; set-up: dose 1 mg/kg, route intravenous; conditions: in vivo
[24] = AUC (0 to infinity) in P-gp-knockout Sprague-Dawley rat at 2 mg/kg, iv; type: ADME, organism-based; set-up: time infinity, dose 2 mg/kg, route intravenous; conditions: plasma
[25] = Drug recovery in feces of beagle dog at 1 mg/kg, iv administered as 5 mins infusion measured up to 72 hrs; type: ADME, organism-based, Canis lupus familiaris; set-up: dose 1 mg/kg, route intravenous; conditions: read-out: Drug recovery
[26] = Renal clearance in wild-type bile duct-cannulated Sprague-Dawley rat at 2 mg/kg, iv administered 0.125 hr post GF-120918 treatment; type: ADME, organism-based, Kidney; set-up: dose 2 mg/kg, route intravenous; conditions: in vivo, with GF-120918
[27] = Drug recovery in bile of bile duct-cannulated BCRP-knockout Sprague-Dawley rat at 2 mg/kg, iv measured up to 24 hrs; type: ADME, organism-based; set-up: dose 2 mg/kg, route intravenous; conditions: read-out: Drug recovery
[28] = tested on: Rattus norvegicus; experiment: Metabolism and biliary clearance in wild-type bile duct-cannulated Sprague-Dawley rat at 2 mg/kg, iv; type: ADME, organism-based; set-up: dose 2 mg/kg, route intravenous; conditions: in vivo
[29] = AUC (0 to infinity) in BCRP-knockout Sprague-Dawley rat at 2 mg/kg, iv; type: ADME, organism-based; set-up: time infinity, dose 2 mg/kg, route intravenous; conditions: plasma
[30] = Renal clearance in bile duct-cannulated beagle dog at 1 mg/kg, iv administered as 5 mins infusion; type: ADME, organism-based, Canis lupus familiaris, Kidney; set-up: dose 1 mg/kg, route intravenous; conditions: in vivo
[31] = tested on: Rattus norvegicus; experiment: Intestinal clearance in wild-type bile duct-cannulated Sprague-Dawley rat at 2 mg/kg, iv administered 0.125 hr post GF-120918 treatment; type: ADME, organism-based; set-up: dose 2 mg/kg, route intravenous; conditions: in vivo
[32] = tested on: Rattus norvegicus; experiment: Renal clearance in wild-type bile duct-cannulated Sprague-Dawley rat at 2 mg/kg, iv administered 0.125 hr post GF-120918 treatment relative to total clearance; type: ADME, organism-based, Kidney; set-up: dose 2 mg/kg, route intravenous; conditions: in vivo
[33] = Drug recovery in urine of bile duct-cannulated beagle dog at 1 mg/kg, iv administered as 5 mins infusion measured up to 72 hrs; type: ADME, organism-based, Canis lupus familiaris; set-up: dose 1 mg/kg, route intravenous; conditions: read-out: Drug recovery
[34] = Mean residence time in wild-type 30 mins activated charcoal pre-treated bile duct-cannulated Sprague-Dawley rat at 2 mg/kg, iv followed by activated charcoal administration 5 to 180 mins post compound dosing; type: ADME, organism-based; set-up: dose 2 mg/kg, route intravenous; conditions: in vivo
[35] = Drug recovery in feces of bile duct-cannulated beagle dog at 1 mg/kg, iv administered as 5 mins infusion followed by activated charcoal administration 10 to 420 mins post compound measured up to 72 hrs; type: ADME, organism-based, Canis lupus familiaris; set-up: dose 1 mg/kg, route intravenous; conditions: in vivo
[36] = Drug recovery in urine of bile duct-cannulated BCRP-knockout Sprague-Dawley rat at 2 mg/kg, iv measured up to 24 hrs; type: ADME, organism-based; set-up: dose 2 mg/kg, route intravenous; conditions: read-out: Drug recovery
[37] = Volume of distribution at steady state in P-gp-knockout Sprague-Dawley rat at 2 mg/kg, iv; type: ADME, organism-based; set-up: dose 2 mg/kg, route intravenous; conditions: in vivo, read-out: Vdss
[38] = tested on: Canis familiaris; experiment: AUC (0 to infinity) in bile duct-cannulated beagle dog at 1 mg/kg, iv administered as 5 mins infusion followed by activated charcoal administration 10 to 420 mins post compound dosing; type: ADME, organism-based, Canis lupus familiaris; set-up: time infinity, dose 1 mg/kg, route intravenous; conditions: in vivo
[39] = Clearance in BCRP-knockout Sprague-Dawley rat at 2 mg/kg, iv; type: ADME, organism-based; set-up: dose 2 mg/kg, route intravenous; conditions: in vivo
[40] = Volume of distribution at steady state in bile duct-cannulated beagle dog at 1 mg/kg, iv administered as 5 mins infusion followed by activated charcoal administration 10 to 420 mins post compound dosing; type: ADME, organism-based, Canis lupus familiaris; set-up: dose 1 mg/kg, route intravenous; conditions: in vivo, read-out: Vdss
[41] = AUC (0 to infinity) in wild-type 30 mins activated charcoal pre-treated bile duct-cannulated Sprague-Dawley rat at 2 mg/kg, iv followed by activated charcoal administration 5 to 180 mins post compound dosing; type: ADME, organism-based; set-up: time infinity, dose 2 mg/kg, route intravenous; conditions: in vivo
[42] = Drug recovery in urine of bile duct-cannulated Sprague-Dawley rat at 2 mg/kg, iv measured up to 24 hrs; type: ADME, organism-based; set-up: dose 2 mg/kg, route intravenous; conditions: read-out: Drug recovery
[43] = Clearance in wild-type bile duct-cannulated Sprague-Dawley rat at 2 mg/kg, iv; type: ADME, organism-based; set-up: dose 2 mg/kg, route intravenous; conditions: in vivo
[44] = AUC (0 to infinity) in wild-type bile duct-cannulated Sprague-Dawley rat at 2 mg/kg, iv; type: ADME, organism-based; set-up: time infinity, dose 2 mg/kg, route intravenous; conditions: in vivo

## COc1ccc(-n2nc(C(N)=O)c3c2[14C](=O)N(c2ccc(N4CCCCC4=O)cc2)CC3)cc1
[1]
  Cmax: 1970 ng/mL
[2]
  CL: 21%
[3]
  CL renal: 11.8 mL/min/kg
[4]
  CL: 39%
[5]
  CL: 4.33 mL/min/kg
[6]
  Vd: 1.2 L/kg
[7]
  half-life: 1.8 h
[8]
  CL renal: 13 mL/min/kg
[9]
  CL: 30%
[10]
  Cmax: 2160 ng/mL
[11]
  CL: 4.83 mL/min/kg
[12]
  fraction unbound: 0.04
[13]
  dose excreted at 72 h: 73.7%
[14]
  CL: 43%
[15]
  dose excreted: 14.7%
[16]
  Cmax: 4430 ng/mL
[17]
  CL: 24%
[18]
  CL: 0.287 mL/min/kg
[19]
  CL: 0.288 mL/min/kg
[20]
  dose excreted: 40.7%
[21]
  CL: 5 mL/min/kg
[22]
  dose excreted: 50.6%
[23]
  CL: 0.833 mL/min/kg
[24]
  AUC(0-inf): 2040 ng·h/mL
[25]
  dose excreted: 50.8%
[26]
  CL renal at 0.125 h: 5.83 mL/min/kg
[27]
  dose excreted at 24 h: 12.7%
[28]
  CL: 6.5 mL/min/kg
[29]
  AUC(0-inf): 2340 ng·h/mL
[30]
  CL renal at 5 min: 0.0907 mL/min/kg
[31]
  CL: 1.7 mL/min/kg
[32]
  CL: 50%
[33]
  dose excreted: 13.5%
[34]
  MRT: 0.6 h
[35]
  Drug recovery: 62.7%
[36]
  dose excreted at 24 h: 35.5%
[37]
  Vd: 0.7 L/kg
[38]
  AUC: 5600 ng·h/mL
[39]
  clearance: 15 mL/min/kg
[40]
  Vd: 0.2 L/kg
[41]
  AUC(0-inf): 1020 ng·h/mL
[42]
  dose excreted at 24 h: 49.5%
[43]
  clearance: 23.3 mL/min/kg
[44]
  AUC(0-inf): 1410 ng·h/mL
